Assay results reported in US20030086873A1, “Myocardial imaging agent and preparation method thereof” (priority 2001, published 2003).

Legend:
[1] = Biological distribution in the bodies of Kunming mice after caudal vein injection; format: in vivo
Description: The complexes [^99mTc(CO)3(OH2)3]^+ and [^99mTc(CO)3(MIBI)3]^+ prepared in Example 1 were separately injected in the caudal vein of Kunming mice. The experiment was conducted on three mice within each time period, and the injection's activity was 925 KBq. The radioactivity of individual organs's tissue was measured at 5, 15, 30, and 60 minutes after the injection, and the results are represented by radioactive uptake rate per gram of tissue.
The results of the distribution of [^99mTc(CO)3(OH2)3]^+ in the mice's bodies are included in Tables 2; the results for [^99mTc(CO)3(MIBI)3]^+ are presented in Table 3. The value “% ID/g” is the percentage of the injection's total radioactivity that each gram of tissue accounts for i.e., the radioactive uptake rate per gram of tissue, with ID standing for “injected dose.”

[2] = Dynamic SPECT imaging and biological distribution in dogs after intravenous injection; format: in vivo; settings: for Heart biological distribution / Kidneys biological distribution / Liver biological distribution / Lungs biological distribution: i.v.
Description: Dogs were intravenously injected with [^99mTc(CO)3(MIBI)3]^+ or [^99mTc(MIBI)6][…]at dose of […]. Immediately following injection, dynamic photography for up to 120 min was performed using a Toshiba GCA 7200A two-probe SPECT and a low energy parallel aperture regular collimator. Time—radioactivity curves were also collected for the heart, liver, lungs, and kidneys. Target/non-target radioactivity ratios were calculated, and fall body imaging was performed separately at different times. The biological distributions of the imaging agents in the body were analyzed. Vein blood samples were collected separately at different times, and the dynamics of the blood clearance was analyzed. Flat myocardial imaging was conducted separately at different times, with myocardial tomographic imaging at 120 minutes post injection.

In the case of `[C-]#[N+]CC(C)(C)OC.[C-]#[N+]CC(C)(C)OC.[C-]#[N+]CC(C)(C)OC.[C-]#[N+]CC(C)(C)OC.[C-]#[N+]CC(C)(C)OC.[C-]#[N+]CC(C)(C)OC.[Tc]` [[^99mTc(MIBI)6]^+, reference compound], the “Target/Non-Target Uptake Ratio Heart/Blood” value ([1]; 5 Minutes) is reported as 12.80, the “Target/Non-Target Uptake Ratio Heart/Liver” value ([1]; 5 Minutes) is reported as 0.94 and the “Target/Non-Target Uptake Ratio Heart/Lungs” value ([1]; 5 Minutes) is reported as 2.87. The “Target/Non-Target Uptake Ratio Heart/Blood” value ([1]; 15 Minutes) was 35.09, the “Target/Non-Target Uptake Ratio Heart/Liver” value ([1]; 15 Minutes) was 0.76 and the “Target/Non-Target Uptake Ratio Heart/Lungs” value ([1]; 15 Minutes) was 6.08. For the same compound, the “Target/Non-Target Uptake Ratio Heart/Blood” value ([1]; 30 Minutes) was 89.04, the “Target/Non-Target Uptake Ratio Heart/Liver” value ([1]; 30 Minutes) was 0.90 and the “Target/Non-Target Uptake Ratio Heart/Lungs” value ([1]; 30 Minutes) was 9.07. The “Target/Non-Target Uptake Ratio Heart/Blood” value ([1]; 60 Minutes) was 134.15, the “Target/Non-Target Uptake Ratio Heart/Liver” value ([1]; 60 Minutes) was 1.04 and the “Target/Non-Target Uptake Ratio Heart/Lungs” value ([1]; 60 Minutes) was 12.25. For the same compound, the Target/Non-Target Uptake Ratio Heart/Kidneys ([2]; 2 Minutes) was 0.39, the Target/Non-Target Uptake Ratio Heart/Liver ([2]; 2 Minutes) was 0.83 and the Target/Non-Target Uptake Ratio Heart/Lungs ([2]; 2 Minutes) was 2.35. The Target/Non-Target Uptake Ratio Heart/Kidneys ([2]; 5 Minutes) was 0.48, the Target/Non-Target Uptake Ratio Heart/Liver ([2]; 5 Minutes) was 0.83 and the Target/Non-Target Uptake Ratio Heart/Lungs ([2]; 5 Minutes) was 2.48. The Target/Non-Target Uptake Ratio Heart/Kidneys ([2]; 10 Minutes) was 0.59, the Target/Non-Target Uptake Ratio Heart/Liver ([2]; 10 Minutes) was 0.77 and the Target/Non-Target Uptake Ratio Heart/Lungs ([2]; 10 Minutes) was 2.66. It also gave a Target/Non-Target Uptake Ratio Heart/Kidneys ([2]; 20 Minutes) of 0.45, a Target/Non-Target Uptake Ratio Heart/Liver ([2]; 20 Minutes) of 0.85 and a Target/Non-Target Uptake Ratio Heart/Lungs ([2]; 20 Minutes) of 2.8. For the same compound, the Target/Non-Target Uptake Ratio Heart/Kidneys ([2]; 30 Minutes) was 0.43, the Target/Non-Target Uptake Ratio Heart/Liver ([2]; 30 Minutes) was 0.86 and the Target/Non-Target Uptake Ratio Heart/Lungs ([2]; 30 Minutes) was 2.68. The Target/Non-Target Uptake Ratio Heart/Kidneys ([2]; 40 Minutes) was 0.43, the Target/Non-Target Uptake Ratio Heart/Liver ([2]; 40 Minutes) was 0.87 and the Target/Non-Target Uptake Ratio Heart/Lungs ([2]; 40 Minutes) was 2.7. For the same compound, the Target/Non-Target Uptake Ratio Heart/Kidneys ([2]; 60 Minutes) was 0.43, the Target/Non-Target Uptake Ratio Heart/Liver ([2]; 60 Minutes) was 0.84 and the Target/Non-Target Uptake Ratio Heart/Lungs ([2]; 60 Minutes) was 2.84. The Target/Non-Target Uptake Ratio Heart/Kidneys ([2]; 90 Minutes) was 0.46, the Target/Non-Target Uptake Ratio Heart/Liver ([2]; 90 Minutes) was 0.8 and the Target/Non-Target Uptake Ratio Heart/Lungs ([2]; 90 Minutes) was 2.84. The Target/Non-Target Uptake Ratio Heart/Kidneys ([2]; 120 Minutes) was 0.45, the Target/Non-Target Uptake Ratio Heart/Liver ([2]; 120 Minutes) was 0.8 and the Target/Non-Target Uptake Ratio Heart/Lungs ([2]; 120 Minutes) was 2.73. It also gave a Heart biological distribution ([2]; 20 Minutes) of 3.2 % ID/g, a Kidneys biological distribution ([2]; 20 Minutes) of 14.3 % ID/g and a Liver biological distribution ([2]; 20 Minutes) of 21.0 % ID/g. For the same compound, the Lungs biological distribution ([2]; 20 Minutes) was 6.3 % ID/g, the Heart biological distribution ([2]; 30 Minutes) was 3.5 % ID/g and the Kidneys biological distribution ([2]; 30 Minutes) was 3.2 % ID/g. The Liver biological distribution ([2]; 30 Minutes) was 10.3 % ID/g, the Lungs biological distribution ([2]; 30 Minutes) was 6.5 % ID/g and the Heart biological distribution ([2]; 40 Minutes) was 2.9 % ID/g. It also gave a Kidneys biological distribution ([2]; 40 Minutes) of 12.3 % ID/g, a Liver biological distribution ([2]; 40 Minutes) of 24.4 % ID/g and a Lungs biological distribution ([2]; 40 Minutes) of 6.3 % ID/g. It also gave a Heart biological distribution ([2]; 60 Minutes) of 3.3 % ID/g, a Kidneys biological distribution ([2]; 60 Minutes) of 12.7 % ID/g and a Liver biological distribution ([2]; 60 Minutes) of 25.1 % ID/g. The Lungs biological distribution ([2]; 60 Minutes) was 5.5 % ID/g, the Heart biological distribution ([2]; 90 Minutes) was 3.2 % ID/g and the Kidneys biological distribution ([2]; 90 Minutes) was 13.2 % ID/g. It also gave a Liver biological distribution ([2]; 90 Minutes) of 22.8 % ID/g, a Lungs biological distribution ([2]; 90 Minutes) of 6.2 % ID/g and a Heart biological distribution ([2]; 120 Minutes) of 3.5 % ID/g. The Kidneys biological distribution ([2]; 120 Minutes) was 12.1 % ID/g, the Liver biological distribution ([2]; 120 Minutes) was 25.2 % ID/g and the Lungs biological distribution ([2]; 120 Minutes) was 5.2 % ID/g. For the same compound, the “Liver time-radioactivity curve relative to the myocardial curve” value ([2]; in words) was “higher than the myocardial curve”.
For “[^99mTc(CO)3(OH2)3]^+ [reference compound]”, the “Blood radioactive uptake per gram of tissue” value ([1]; 5 Minutes after injection) was 9.27 ± 1.13 % ID/g, the “Bones radioactive uptake per gram of tissue” value ([1]; 5 Minutes after injection) was 2.82 ± 0.95 % ID/g and the “Brain radioactive uptake per gram of tissue” value ([1]; 5 Minutes after injection) was 0.31 ± 0.09 % ID/g. The “Heart radioactive uptake per gram of tissue” value ([1]; 5 Minutes after injection) was 2.68 ± 0.88 % ID/g, the “Kidneys radioactive uptake per gram of tissue” value ([1]; 5 Minutes after injection) was 18.29 ± 4.22 % ID/g and the “Liver radioactive uptake per gram of tissue” value ([1]; 5 Minutes after injection) was 10.33 ± 0.82 % ID/g. The “Lungs radioactive uptake per gram of tissue” value ([1]; 5 Minutes after injection) was 6.53 ± 1.41 % ID/g, the “Muscles radioactive uptake per gram of tissue” value ([1]; 5 Minutes after injection) was 1.47 ± 0.37 % ID/g and the “Spleen radioactive uptake per gram of tissue” value ([1]; 5 Minutes after injection) was 2.02 ± 1.02 % ID/g. The “Blood radioactive uptake per gram of tissue” value ([1]; 15 Minutes after injection) was 6.04 ± 0.73 % ID/g, the “Bones radioactive uptake per gram of tissue” value ([1]; 15 Minutes after injection) was 1.68 ± 0.22 % ID/g and the “Brain radioactive uptake per gram of tissue” value ([1]; 15 Minutes after injection) was 0.27 ± 0.03 % ID/g. For the same compound, the “Heart radioactive uptake per gram of tissue” value ([1]; 15 Minutes after injection) was 2.39 ± 0.66 % ID/g, the “Kidneys radioactive uptake per gram of tissue” value ([1]; 15 Minutes after injection) was 14.25 ± 1.78 % ID/g and the “Liver radioactive uptake per gram of tissue” value ([1]; 15 Minutes after injection) was 11.95 ± 0.66 % ID/g. The “Lungs radioactive uptake per gram of tissue” value ([1]; 15 Minutes after injection) was 5.38 ± 0.76 % ID/g, the “Muscles radioactive uptake per gram of tissue” value ([1]; 15 Minutes after injection) was 1.46 ± 0.48 % ID/g and the “Spleen radioactive uptake per gram of tissue” value ([1]; 15 Minutes after injection) was 2.38 ± 0.37 % ID/g. The “Blood radioactive uptake per gram of tissue” value ([1]; 30 Minutes after injection) was 5.79 ± 0.66 % ID/g, the “Bones radioactive uptake per gram of tissue” value ([1]; 30 Minutes after injection) was 2.38 ± 0.54 % ID/g and the “Brain radioactive uptake per gram of tissue” value ([1]; 30 Minutes after injection) was 0.29 ± 0.06 % ID/g. The “Heart radioactive uptake per gram of tissue” value ([1]; 30 Minutes after injection) was 2.39 ± 0.56 % ID/g, the “Kidneys radioactive uptake per gram of tissue” value ([1]; 30 Minutes after injection) was 13.88 ± 1.02 % ID/g and the “Liver radioactive uptake per gram of tissue” value ([1]; 30 Minutes after injection) was 10.83 ± 1.68 % ID/g. The “Lungs radioactive uptake per gram of tissue” value ([1]; 30 Minutes after injection) was 5.37 ± 0.78 % ID/g, the “Muscles radioactive uptake per gram of tissue” value ([1]; 30 Minutes after injection) was 1.66 ± 0.61 % ID/g and the “Spleen radioactive uptake per gram of tissue” value ([1]; 30 Minutes after injection) was 2.94 ± 0.69 % ID/g. The “Blood radioactive uptake per gram of tissue” value ([1]; 60 Minutes after injection) was 4.50 ± 0.72 % ID/g, the “Bones radioactive uptake per gram of tissue” value ([1]; 60 Minutes after injection) was 1.65 ± 0.12 % ID/g and the “Brain radioactive uptake per gram of tissue” value ([1]; 60 Minutes after injection) was 0.22 ± 0.03 % ID/g. The “Heart radioactive uptake per gram of tissue” value ([1]; 60 Minutes after injection) was 2.08 ± 0.31 % ID/g, the “Kidneys radioactive uptake per gram of tissue” value ([1]; 60 Minutes after injection) was 12.28 ± 2.32 % ID/g and the “Liver radioactive uptake per gram of tissue” value ([1]; 60 Minutes after injection) was 10.73 ± 0.90 % ID/g. For the same compound, the “Lungs radioactive uptake per gram of tissue” value ([1]; 60 Minutes after injection) was 5.19 ± 1.18 % ID/g, the “Muscles radioactive uptake per gram of tissue” value ([1]; 60 Minutes after injection) was 1.37 ± 0.80 % ID/g and the “Spleen radioactive uptake per gram of tissue” value ([1]; 60 Minutes after injection) was 3.20 ± 0.80 % ID/g. For the same compound, the “Specific concentration in tissues / heart” value ([1]; in words) was “no specific concentration” and the Radioactive retention ([1]; within 60 minutes, in words) was “good radioactive retention”.
